The values that follow come from patent publication US11439627B2, “Pharmaceutical composition for the treatment of autism” (Stalicla S.A., priority 2017, dated 2022).

The test system of data set [1] is patients with autism spectrum disorder classified as Phenotype 1. The experiment in a line: ADI-r scores of ASD phenotype 1 patients under treatment. Format: in vivo, human. The settings on record: after four weeks of ibudilast 0.6 mg/kg daily total, TID. The method, then: A pharmaceutical composition comprising ibudilast and bumetanide was administered to patients with a diagnosis of autism spectrum disorder as defined in the DSM-5, or PDD-NOS or Asperger syndrome as defined in the DSM-IV. Eligibility criteria: male sex, age 5-50, no current chronic illness, no history of active seizures within 1 year, normal liver, renal and thyroid function. Concomitant medications were permitted if doses were stable for at least 60 days prior to the initiation of the challenge test. Patients with no syndromic or identified genetic etiology. […] Description: Four of the patients characterized as above were administered ibudilast. The four subjects had varying levels of functioning ranging from mild to severe, and varying different levels of verbal and intellectual abilities. IQ values ranged from 61 to 86. All were males. Four patients were treated with ibudilast at a daily total dosage of 0.6 mg/kg, TID. A new treatment regimen was introduced, this time ibudilast at a daily total dosage of 0.6 mg/kg, TID, was administered in conjunction with bumetanide at a daily total dosage of 0.08 mg/kg, BID (with a maximum upper daily dose of […]).

For data set [2] the following is noted: single dose of 10 mg, healthy adults, in 72 hours; cited from earlier work.

Consider `CC(C)C(=O)c1c(C(C)C)nn2ccccc12` [ibudilast], for which the “ADI-r RI” value in data set [1] (Patient 1, baseline 7) worked out at 6; in data set [1] (Patient 2, baseline 5) it was 5; in data set [1] (Patient 3, baseline 7), 5; in data set [1] (Patient 4, baseline 7), 7. The “ADI-r C” value was 20 in data set [1] (Patient 1, baseline 24); 15 in data set [1] (Patient 2, baseline 19); 14 in data set [1] (Patient 3, baseline 18); 14 in data set [1] (Patient 4, baseline 17). Further, the “ADI-r SI” value in data set [1] (Patient 1, baseline 28) is reported as 21; in data set [1] (Patient 2, baseline 20), 16; in data set [1] (Patient 3, baseline 14) it was 12; in data set [1] (Patient 4, baseline 27), 22. In addition, in data set [2], the “dose excreted as metabolites in urine” value was “about 60%”.
